Key:
Format in all cases: in vivo
[1] = test system: Alopecurus myosuroides (ALOMY); test: Herbicidal pre-emergence action; conditions: 1280 g/ha, graded after ca. 3 weeks
Description: (§1) Seeds of mono- and dicotyledonous weed plants and crop plants were sown, in plastic or organic planting pots, in sandy loam and covered with soil. The compounds according to the invention, formulated in the form of wettable powders (WP) or as emulsifiable concentrates (EC), were applied to the surface of the covering soil as aqueous suspension or emulsion, with the addition of 0.5% of an additive, at an application rate of 600 1 of water/ha (converted).
(§2) Following treatment, the pots were placed in a greenhouse and kept under optimum growth conditions for the test plants. The visual grading of the damage to the test plants was carried out after ca. 3 weeks in comparison to untreated controls (herbicidal effect in percent (%): 100% effect=plants have died off, 0% effect=as control plants).
(§3) Tables A1 to A16, below, show the effects of selected compounds of the general formula (I) according to table 1 on various harmful plants and an application rate corresponding to 1280 g/ha or lower obtained by the experimental procedure mentioned above.

Avena fatua (AVEFA) [2] = test: Herbicidal pre-emergence action; conditions: 1280 g/ha, graded after ca. 3 weeks
Description: as §1, §2, §3

[3] = test system: Echinochloa crus-galli (ECHCG); test: Herbicidal pre-emergence action; conditions: 1280 g/ha, graded after ca. 3 weeks
Description: as §1, §2, §3

[4] = test system: Polygonum convolvulus (POLCO); test: Herbicidal pre-emergence action; conditions: 1280 g/ha, graded after ca. 3 weeks
Description: as §1, §2, §3

[5] = test system: Echinochloa crus-galli (ECHCG); test: Herbicidal post-emergence action; conditions: 1280 g/ha, assessed after ca. 3 weeks
Description: (§4) Seeds of mono- and dicotyledonous weed plants and crop plants were sown, in plastic or organic planting pots, in sandy loam, covered with soil and grown in a greenhouse under controlled growth conditions. 2 to 3 weeks after sowing, the test plants were sprayed in the single-leaf stage. The compounds according to the invention, formulated in form of wettable powders (WP) or as emulsifiable concentrates (EC), were sprayed onto the green plant parts as aqueous suspension or emulsion, with the addition of 0.5% of an additive, at an application rate of 600 1 of water/ha (converted). The test plants were placed in the greenhouse for ca. 3 weeks under optimum growth conditions, and then the effect of the preparations was assessed visually in comparison with untreated controls (herbicidal effect in percent (%): 100% effect=plants have died off, 0% effect=as control plants).
(§5) Tables B1 to B16 below show the effects of selected compounds of the general formula (I) according to table 1 on various harmful plants and an application rate corresponding to 1280 g/ha or 320 g/ha obtained by the experimental procedure mentioned above.

Setaria viridis (SETVI) [6] = test: Herbicidal post-emergence action; conditions: 1280 g/ha, assessed after ca. 3 weeks
Description: as §4, §5

Veronica persica (VERPE) = test: Herbicidal pre-emergence action; conditions: 1280 g/ha, graded after ca. 3 weeks
Description: as §1, §2, §3

[7] = test system: Lolium multiflorum (LOLMU); test: Herbicidal pre-emergence action; conditions: 1280 g/ha, graded after ca. 3 weeks
Description: as §1, §2, §3

Setaria viridis (SETVI) [8] = test: Herbicidal pre-emergence action; conditions: 1280 g/ha, graded after ca. 3 weeks
Description: as §1, §2, §3

[9] = test system: Alopecurus myosuroides (ALOMY); test: Herbicidal post-emergence action; conditions: 1280 g/ha, assessed after ca. 3 weeks
Description: as §4, §5

Avena fatua (AVEFA) [10] = test: Herbicidal post-emergence action; conditions: 1280 g/ha, assessed after ca. 3 weeks
Description: as §4, §5

[11] = test system: Lolium multiflorum (LOLMU); test: Herbicidal post-emergence action; conditions: 1280 g/ha, assessed after ca. 3 weeks
Description: as §4, §5

[12] = test system: Cyperus esculentus (CYPES); test: Herbicidal pre-emergence action; conditions: 1280 g/ha, graded after ca. 3 weeks
Description: as §1, §2, §3

SMILES	Pre-emergence activity against ALOMY [1] [%]	Pre-emergence activity against AVEFA (Avena fatua (AVEFA) [2]) [%]	Pre-emergence activity against ECHCG [3] [%]	Pre-emergence activity against POLCO [4] [%]	Post-emergence activity against ECHCG [5] [%]	Post-emergence activity against SETVI (Setaria viridis (SETVI) [6]) [%]	Pre-emergence activity against VERPE (Veronica persica (VERPE)) [%]	Pre-emergence activity against LOLMU [7] [%]	Pre-emergence activity against SETVI (Setaria viridis (SETVI) [8]) [%]	Post-emergence activity against ALOMY [9] [%]	Post-emergence activity against AVEFA (Avena fatua (AVEFA) [10]) [%]	Post-emergence activity against LOLMU [11] [%]	Pre-emergence activity against CYPES [12] [%]
O=C(CC1CCC(=O)N1Cc1cccc(F)c1F)NC(Cc1ccccc1)C(=O)O (mixture of isomers) [Example I-044]	80	90	80	90	90	80							
Cc1ccc2c(c1)C(NC(=O)CC1CCC(=O)N1Cc1cccc(F)c1F)C(C)C2 (mixture of isomers) [Example I-106]							80						
COC(=O)CC1CCC(=O)N1Cc1cccc(F)c1F (racemic) [Example I-008]	90	100	90	90	90	80		80	90	80	90	80	
CCOC(=O)CC1CCC(=O)N1Cc1cccc(F)c1F (racemic) [Example I-019]	90	100	90	90	80			90	90	80	100	90	80
O=C(CC1CCC(=O)N1Cc1cccc(F)c1F)OCC1CC1 (racemic) [Example I-020]	80	100	80		90		80	80		80	90	80	
O=C(CC1CCC(=O)N1Cc1cccc(F)c1F)OCCSc1ccccc1 (racemic) [Example I-022]	90	90			90	90			80		90	80	
O=C(CC1CCC(=O)N1Cc1cccc(F)c1F)OC1CCC1 (racemic) [Example I-024]	90	100	80	80	90	80		90	80	90	90	90	90
CCCC(C)OC(=O)CC1CCC(=O)N1Cc1cccc(F)c1F (racemic) [Example I-028]	80	100	80		80		80	90	80	80	80	80	80
CCC(C)OC(=O)CC1CCC(=O)N1Cc1cccc(F)c1F (racemic) [Example I-030]	90	100	80	80	80		90	80	80	80	80	80	
COc1ccc(OCCOC(=O)CC2CCC(=O)N2Cc2cccc(F)c2F)cc1 (racemic) [Example I-031]	90	100	80	80	90	80				90		90	80
O=C(CC1CCC(=O)N1Cc1cccc(F)c1F)OCCS(=O)(=O)c1ccccc1 (racemic) [Example I-032]	90	100	80		90		80			80		90	80
Cc1ccc(CN2C(=O)CCC2CC(=O)O)c(F)c1F (racemic) [Example I-035]		100	80		90	100				80	90	80	
CC(C)C(C)OC(=O)CC1CCC(=O)N1Cc1cccc(F)c1F (racemic) [Example I-036]	90	100	80	80	90		90	80	100	80	90		
NC(=O)CC1CCC(=O)N1Cc1cccc(F)c1F (racemic) [Example I-057]	90	80		80					80				100
Cc1ccc(CN2C(=O)CCC2CC(=O)NS(C)(=O)=O)c(F)c1F (racemic) [Example I-087]	90						100						
O=C(CC1CCC(=O)N1Cc1cccc(Cl)c1Cl)NS(=O)(=O)C(F)F (racemic) [Example I-095]							80						
O=C(CC1CCC(=O)N1Cc1cccc(F)c1F)NCc1ccc(Cl)nc1 (racemic) [Example I-102]				80			90						
CS(=O)(=O)NC(=O)CC1CCC(=O)N1Cc1cccc(Cl)c1Cl (racemic) [Example I-105]							90						
CC[C@@H](C)[C@@H](NC(=O)CC1CCC(=O)N1Cc1cccc(F)c1F)C(=O)O (single isomer, unassigned) [Example I-043]	90	100	90		80	80		80	90	80	80	80	
Cc1nonc1NC(=O)CC1CCC(=O)N1Cc1cccc(F)c1F (stereo not shown) [Example I-046, 2-[1-[(2,3-difluorophenyl)methyl]-5-oxo-pyrrolidin-2-yl]-N-(4-methyl-1,2,5-oxadiazol-3-yl)acetamide]		100					100				90	80	100

— patent US20240199542A1, “SUBSTITUTED PYRROLIDIN-2-ONES, SALTS THEREOF AND THEIR USE AS HERBICIDALLY ACTIVE SUBSTANCES” (Bayer Aktiengesellschaft, priority 2021, published 2024)
